In US10835533B2, “1 -((3S,4R)-4-(3-fluorophenyl)-1-(2-methoxyethyl)pyrrolidin-3-yl)-3-(4-methyl-3-(2-methylpyrimidin-5-yl)-1-phenyl-1H-pyrazol-5-yl)urea as a TrkA kinase inhibitor” (Array BioPharma Inc., priority 2014, dated 2020):

Columns and labels:
Assay in all cases: KinaseProfiler kinase profiling
Assay type in all cases: biochemical
Conditions in all cases: 10 μM, ATP near Km
eEF-2K = target: T1, eEF-2K (Homo sapiens, UniProt O00418)
T1 construct: purchased Millipore, Inc. (KinaseProfiler service)
Experimental: (§1) Compound 1 was tested for off-target kinase activity at a concentration of 10 μM by Millipore, Inc. in their KinaseProfiler™ service against all the kinases available in their full kinase panel. Compound 1 was run in duplicate at a concentration of ATP near the Km for each individual kinase according to Millipore's specifications. Data are reported as percent of control (POC) and are the average of the two replicates.

CDK6/cyclinD3 = target: T2, CDK6/cyclinD3 (Homo sapiens, UniProt Q00534)
T2 construct: purchased Millipore, Inc. (KinaseProfiler service)
T2 sequence (Q00534 whole entry): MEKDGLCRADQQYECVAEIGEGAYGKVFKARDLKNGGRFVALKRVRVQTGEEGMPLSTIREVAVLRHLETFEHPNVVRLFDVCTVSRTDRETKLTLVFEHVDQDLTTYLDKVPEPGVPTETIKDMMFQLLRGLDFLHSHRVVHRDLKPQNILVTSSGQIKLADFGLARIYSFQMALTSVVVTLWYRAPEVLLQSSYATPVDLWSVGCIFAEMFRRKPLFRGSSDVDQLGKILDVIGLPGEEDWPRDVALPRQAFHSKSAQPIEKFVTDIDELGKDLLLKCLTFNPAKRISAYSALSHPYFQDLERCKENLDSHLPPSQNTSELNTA
T2 sequence (P30281 whole entry partner): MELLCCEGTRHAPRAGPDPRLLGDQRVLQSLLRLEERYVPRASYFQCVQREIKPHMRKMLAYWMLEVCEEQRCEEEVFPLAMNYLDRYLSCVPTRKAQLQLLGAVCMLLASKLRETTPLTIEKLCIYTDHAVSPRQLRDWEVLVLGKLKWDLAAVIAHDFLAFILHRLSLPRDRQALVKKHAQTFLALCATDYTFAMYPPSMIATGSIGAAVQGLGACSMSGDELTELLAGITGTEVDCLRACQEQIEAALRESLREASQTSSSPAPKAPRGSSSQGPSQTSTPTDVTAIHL
Experimental: as §1

PKD2 = target: T3, PKD2 (Homo sapiens, UniProt Q9BZL6)
T3 construct: purchased Millipore, Inc. (KinaseProfiler service)
Experimental: as §1

CK1gamma1 = target: T4, CK1gamma1 (Homo sapiens, UniProt Q9HCP0)
T4 construct: purchased Millipore, Inc. (KinaseProfiler service)
Experimental: as §1

PhKgamma2 = target: T5, PhKgamma2 (Homo sapiens, UniProt P15735)
T5 construct: purchased Millipore, Inc. (KinaseProfiler service)
Experimental: as §1

p38alpha = target: T6, p38alpha (Homo sapiens, UniProt Q16539)
T6 construct: purchased Millipore, Inc. (KinaseProfiler service)
Experimental: as §1

Yes = target: T7, Yes (Homo sapiens, UniProt P07947)
T7 construct: purchased Millipore, Inc. (KinaseProfiler service)
Experimental: as §1

EphA1 = target: T8, EphA1 (Homo sapiens, UniProt P21709)
T8 construct: purchased Millipore, Inc. (KinaseProfiler service)
Experimental: as §1

Lck = target: T9, Lck (Homo sapiens, UniProt P06239)
T9 construct: purchased Millipore, Inc. (KinaseProfiler service)
Experimental: as §1

CAMK1 = target: T10, CAMK1 (Homo sapiens, UniProt Q14012)
T10 construct: purchased Millipore, Inc. (KinaseProfiler service)
Experimental: as §1

SGK1 = target: T11, SGK1 (Homo sapiens, UniProt O00141)
T11 construct: purchased Millipore, Inc. (KinaseProfiler service)
Experimental: as §1

CSK = target: T12, CSK (Homo sapiens, UniProt P41240)
T12 construct: purchased Millipore, Inc. (KinaseProfiler service)
Experimental: as §1

ErbB4 = target: T13, ErbB4 (Homo sapiens, UniProt Q15303)
T13 construct: purchased Millipore, Inc. (KinaseProfiler service)
Experimental: as §1

p70S6K = target: T14, p70S6K (Homo sapiens, UniProt P23443)
T14 construct: purchased Millipore, Inc. (KinaseProfiler service)
Experimental: as §1

CK1delta = target: T15, CK1delta (Homo sapiens, UniProt P48730)
T15 construct: purchased Millipore, Inc. (KinaseProfiler service)
Experimental: as §1

ERK1 = target: T16, ERK1 (Homo sapiens, UniProt P27361)
T16 construct: purchased Millipore, Inc. (KinaseProfiler service)
Experimental: as §1

STK33 = target: T17, STK33 (Homo sapiens, UniProt Q9BYT3)
T17 construct: purchased Millipore, Inc. (KinaseProfiler service)
Experimental: as §1

DAPK3 = target: T18, DAPK3 (Homo sapiens, UniProt O43293)
T18 construct: purchased Millipore, Inc. (KinaseProfiler service)
Experimental: as §1

ULK2 = target: T19, ULK2 (Homo sapiens, UniProt Q8IYT8)
T19 construct: purchased Millipore, Inc. (KinaseProfiler service)
Experimental: as §1

IGF-1R Activated = target: T20, IGF-1R Activated (Homo sapiens, UniProt P08069)
T20 construct: purchased Millipore, Inc. (KinaseProfiler service)
Experimental: as §1

Rsk4 = target: T21, Rsk4 (Homo sapiens, UniProt Q9UK32)
T21 construct: purchased Millipore, Inc. (KinaseProfiler service)
Experimental: as §1

EphA4 = target: T22, EphA4 (Homo sapiens, UniProt P54764)
T22 construct: purchased Millipore, Inc. (KinaseProfiler service)
Experimental: as §1

Hck = target: T23, Hck (Homo sapiens, UniProt P08631)
T23 construct: purchased Millipore, Inc. (KinaseProfiler service)
Experimental: as §1

Pim-2 = target: T24, Pim-2 (Homo sapiens, UniProt Q9P1W9)
T24 construct: purchased Millipore, Inc. (KinaseProfiler service)
T24 sequence (Q9P1W9 whole entry): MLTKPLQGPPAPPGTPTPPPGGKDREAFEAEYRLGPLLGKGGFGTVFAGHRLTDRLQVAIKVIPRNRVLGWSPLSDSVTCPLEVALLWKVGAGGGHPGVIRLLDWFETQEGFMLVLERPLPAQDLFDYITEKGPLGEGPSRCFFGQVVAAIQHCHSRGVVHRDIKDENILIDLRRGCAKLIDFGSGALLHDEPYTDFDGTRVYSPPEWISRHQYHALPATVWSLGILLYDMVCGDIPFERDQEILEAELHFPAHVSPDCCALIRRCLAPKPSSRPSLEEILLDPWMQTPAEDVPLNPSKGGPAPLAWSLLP
Experimental: as §1

p38gamma = target: T25, p38gamma (Homo sapiens, UniProt P53778)
T25 construct: purchased Millipore, Inc. (KinaseProfiler service)
Experimental: as §1

NEK2 = target: T26, NEK2 (Homo sapiens, UniProt P51955)
T26 construct: purchased Millipore, Inc. (KinaseProfiler service)
T26 sequence (P51955 whole entry): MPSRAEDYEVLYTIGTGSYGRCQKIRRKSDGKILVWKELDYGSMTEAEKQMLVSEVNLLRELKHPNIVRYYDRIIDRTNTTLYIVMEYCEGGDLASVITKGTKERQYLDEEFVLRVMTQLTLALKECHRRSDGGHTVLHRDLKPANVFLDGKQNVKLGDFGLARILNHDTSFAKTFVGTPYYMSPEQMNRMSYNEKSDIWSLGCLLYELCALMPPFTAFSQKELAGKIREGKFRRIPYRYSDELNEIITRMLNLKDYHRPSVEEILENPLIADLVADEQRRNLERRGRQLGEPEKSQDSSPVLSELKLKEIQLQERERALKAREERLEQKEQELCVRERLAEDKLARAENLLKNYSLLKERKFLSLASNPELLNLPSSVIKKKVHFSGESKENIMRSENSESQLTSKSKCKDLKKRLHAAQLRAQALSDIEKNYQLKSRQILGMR
Experimental: as §1

CDK5/p35 = target: T27, CDK5/p35 (Homo sapiens, UniProt Q00535)
T27 construct: purchased Millipore, Inc. (KinaseProfiler service)
Experimental: as §1

EphB4 = target: T28, EphB4 (Homo sapiens, UniProt P54760)
T28 construct: purchased Millipore, Inc. (KinaseProfiler service)
Experimental: as §1

AMPK(A1/B1/G1) = target: T29, AMPK(A1/B1/G1) (Homo sapiens, UniProt Q13131)
T29 construct: purchased Millipore, Inc. (KinaseProfiler service)
Experimental: as §1

CK2alpha2 = target: T30, CK2alpha2 (Homo sapiens, UniProt P19784)
T30 construct: purchased Millipore, Inc. (KinaseProfiler service)
Experimental: as §1

MYLK = target: T31, MYLK (Homo sapiens, UniProt Q15746)
T31 construct: purchased Millipore, Inc. (KinaseProfiler service)
Experimental: as §1

KDR = target: T32, KDR (Homo sapiens, UniProt P35968)
T32 construct: purchased Millipore, Inc. (KinaseProfiler service)
Experimental: as §1

DCAMKL2 = target: T33, DCAMKL2 (Homo sapiens, UniProt Q8N568)
T33 construct: purchased Millipore, Inc. (KinaseProfiler service)
Experimental: as §1

Rsk3 = target: T34, Rsk3 (Homo sapiens, UniProt Q15349)
T34 construct: purchased Millipore, Inc. (KinaseProfiler service)
Experimental: as §1

PAK5 = target: T35, PAK5 (Homo sapiens, UniProt Q9P286)
T35 construct: purchased Millipore, Inc. (KinaseProfiler service)
Experimental: as §1

Flt3 = target: T36, Flt3 (Homo sapiens, UniProt P36888)
T36 construct: purchased Millipore, Inc. (KinaseProfiler service)
T36 sequence (P36888 27-993): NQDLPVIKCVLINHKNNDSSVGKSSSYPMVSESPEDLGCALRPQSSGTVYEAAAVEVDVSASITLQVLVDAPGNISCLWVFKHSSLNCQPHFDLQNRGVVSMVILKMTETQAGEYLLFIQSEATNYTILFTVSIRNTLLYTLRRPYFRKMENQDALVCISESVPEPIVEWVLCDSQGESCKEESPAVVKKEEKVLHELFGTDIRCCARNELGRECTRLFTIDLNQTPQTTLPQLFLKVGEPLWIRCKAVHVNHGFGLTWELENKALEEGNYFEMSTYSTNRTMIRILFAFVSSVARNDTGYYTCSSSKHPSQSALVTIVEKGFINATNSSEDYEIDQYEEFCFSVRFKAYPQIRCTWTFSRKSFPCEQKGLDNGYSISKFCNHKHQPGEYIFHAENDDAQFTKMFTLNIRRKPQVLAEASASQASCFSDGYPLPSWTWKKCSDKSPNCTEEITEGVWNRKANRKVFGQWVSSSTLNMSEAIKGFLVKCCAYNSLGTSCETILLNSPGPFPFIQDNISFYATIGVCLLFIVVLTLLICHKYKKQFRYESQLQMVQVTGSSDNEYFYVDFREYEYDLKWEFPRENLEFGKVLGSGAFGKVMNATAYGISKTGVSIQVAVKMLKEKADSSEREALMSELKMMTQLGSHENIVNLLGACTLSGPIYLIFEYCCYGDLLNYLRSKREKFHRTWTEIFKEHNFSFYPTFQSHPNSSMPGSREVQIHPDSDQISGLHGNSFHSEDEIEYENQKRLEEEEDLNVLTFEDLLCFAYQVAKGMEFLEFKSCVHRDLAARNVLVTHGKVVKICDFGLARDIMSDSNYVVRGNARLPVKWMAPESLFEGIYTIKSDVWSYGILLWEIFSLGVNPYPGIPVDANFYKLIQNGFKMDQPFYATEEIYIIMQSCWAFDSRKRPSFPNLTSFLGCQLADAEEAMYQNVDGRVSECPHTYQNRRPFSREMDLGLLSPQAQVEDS
Experimental: as §1

TSSK1 = target: T37, TSSK1 (Homo sapiens, UniProt Q9BXA7)
T37 construct: purchased Millipore, Inc. (KinaseProfiler service)
T37 sequence (Q9BXA7 whole entry): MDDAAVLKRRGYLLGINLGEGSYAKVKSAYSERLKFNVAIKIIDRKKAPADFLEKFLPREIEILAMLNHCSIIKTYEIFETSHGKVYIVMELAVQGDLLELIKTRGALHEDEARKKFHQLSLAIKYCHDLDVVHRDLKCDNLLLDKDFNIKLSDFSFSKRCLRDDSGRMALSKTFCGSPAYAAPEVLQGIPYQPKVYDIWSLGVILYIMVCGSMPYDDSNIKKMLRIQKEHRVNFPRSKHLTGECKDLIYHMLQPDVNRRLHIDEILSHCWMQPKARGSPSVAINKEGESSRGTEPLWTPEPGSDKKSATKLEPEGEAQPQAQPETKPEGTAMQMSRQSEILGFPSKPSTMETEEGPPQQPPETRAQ
Experimental: as §1

EphA2 = target: T38, EphA2 (Homo sapiens, UniProt P29317)
T38 construct: purchased Millipore, Inc. (KinaseProfiler service)
Experimental: as §1

WNK3 = target: T39, WNK3 (Homo sapiens, UniProt Q9BYP7)
T39 construct: purchased Millipore, Inc. (KinaseProfiler service)
T39 sequence (Q9BYP7 whole entry): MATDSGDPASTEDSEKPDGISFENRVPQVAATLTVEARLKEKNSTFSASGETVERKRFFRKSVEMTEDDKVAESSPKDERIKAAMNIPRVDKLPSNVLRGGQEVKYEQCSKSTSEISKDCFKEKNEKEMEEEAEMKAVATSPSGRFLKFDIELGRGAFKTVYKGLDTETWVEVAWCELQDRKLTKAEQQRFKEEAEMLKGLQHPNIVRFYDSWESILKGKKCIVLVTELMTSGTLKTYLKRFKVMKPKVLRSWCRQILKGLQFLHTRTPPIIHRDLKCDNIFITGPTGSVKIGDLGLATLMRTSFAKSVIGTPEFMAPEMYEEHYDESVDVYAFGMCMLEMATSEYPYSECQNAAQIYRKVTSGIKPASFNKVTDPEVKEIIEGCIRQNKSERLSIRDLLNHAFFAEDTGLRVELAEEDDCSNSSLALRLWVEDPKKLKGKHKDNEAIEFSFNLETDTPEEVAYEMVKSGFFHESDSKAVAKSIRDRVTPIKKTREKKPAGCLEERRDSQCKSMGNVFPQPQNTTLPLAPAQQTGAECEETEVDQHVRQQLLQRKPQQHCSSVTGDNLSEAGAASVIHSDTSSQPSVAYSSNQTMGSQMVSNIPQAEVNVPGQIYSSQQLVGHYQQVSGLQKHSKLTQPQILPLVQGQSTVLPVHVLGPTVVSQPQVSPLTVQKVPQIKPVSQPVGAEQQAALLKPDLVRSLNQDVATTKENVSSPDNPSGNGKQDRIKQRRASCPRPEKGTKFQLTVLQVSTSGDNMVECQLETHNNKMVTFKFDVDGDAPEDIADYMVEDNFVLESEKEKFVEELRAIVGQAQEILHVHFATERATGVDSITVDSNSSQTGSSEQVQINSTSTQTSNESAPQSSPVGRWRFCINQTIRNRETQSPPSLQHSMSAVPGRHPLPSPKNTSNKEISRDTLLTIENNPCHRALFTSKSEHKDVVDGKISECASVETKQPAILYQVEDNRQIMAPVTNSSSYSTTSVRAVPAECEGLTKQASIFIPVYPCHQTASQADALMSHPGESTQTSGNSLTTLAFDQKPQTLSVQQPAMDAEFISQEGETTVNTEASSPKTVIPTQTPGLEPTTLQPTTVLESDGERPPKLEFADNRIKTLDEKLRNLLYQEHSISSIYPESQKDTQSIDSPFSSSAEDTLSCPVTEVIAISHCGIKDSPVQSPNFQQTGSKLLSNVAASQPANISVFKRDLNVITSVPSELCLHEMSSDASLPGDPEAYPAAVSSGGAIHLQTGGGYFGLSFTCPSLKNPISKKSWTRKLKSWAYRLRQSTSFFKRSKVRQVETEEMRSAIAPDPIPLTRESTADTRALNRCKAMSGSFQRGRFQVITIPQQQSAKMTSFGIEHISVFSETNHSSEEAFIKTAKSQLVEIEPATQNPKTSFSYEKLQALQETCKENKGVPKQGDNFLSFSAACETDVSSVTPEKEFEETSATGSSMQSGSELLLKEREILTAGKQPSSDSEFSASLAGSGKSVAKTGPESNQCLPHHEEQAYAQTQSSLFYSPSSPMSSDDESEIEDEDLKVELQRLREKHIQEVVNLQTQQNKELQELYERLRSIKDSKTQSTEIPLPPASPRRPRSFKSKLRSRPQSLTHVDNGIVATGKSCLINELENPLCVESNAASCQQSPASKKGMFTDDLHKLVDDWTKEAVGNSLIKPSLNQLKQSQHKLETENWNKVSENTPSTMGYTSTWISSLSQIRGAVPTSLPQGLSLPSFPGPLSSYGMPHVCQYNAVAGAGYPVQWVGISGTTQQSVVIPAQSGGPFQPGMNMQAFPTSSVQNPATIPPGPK
Experimental: as §1

FGFR1 = target: T40, FGFR1 (Homo sapiens, UniProt P11362)
T40 construct: purchased Millipore, Inc. (KinaseProfiler service)
Experimental: as §1

MST2 = target: T41, MST2 (Homo sapiens, UniProt Q13188)
T41 construct: purchased Millipore, Inc. (KinaseProfiler service)
T41 sequence (Q13188 whole entry): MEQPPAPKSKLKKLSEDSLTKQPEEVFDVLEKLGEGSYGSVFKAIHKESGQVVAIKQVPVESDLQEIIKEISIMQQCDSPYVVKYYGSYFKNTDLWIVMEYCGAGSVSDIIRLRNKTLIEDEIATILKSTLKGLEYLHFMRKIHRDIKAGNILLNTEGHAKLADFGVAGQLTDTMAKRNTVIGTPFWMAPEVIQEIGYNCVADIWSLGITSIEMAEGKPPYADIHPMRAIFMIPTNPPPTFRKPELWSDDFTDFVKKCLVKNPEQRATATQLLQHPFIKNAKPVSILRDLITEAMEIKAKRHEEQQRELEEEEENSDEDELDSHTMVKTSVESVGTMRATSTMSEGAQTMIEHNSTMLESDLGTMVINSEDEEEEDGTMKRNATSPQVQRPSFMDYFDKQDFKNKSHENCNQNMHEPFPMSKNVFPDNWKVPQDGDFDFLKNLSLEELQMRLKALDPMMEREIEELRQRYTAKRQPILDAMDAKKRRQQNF
Experimental: as §1

## COCCN1C[C@@H](NC(=O)Nc2c(C)c(-c3cnc(C)nc3)nn2-c2ccccc2)[C@H](c2cccc(F)c2)C1 [Compound 1, 1-((3S,4R)-4-(3-fluorophenyl)-1-(2-methoxyethyl)pyrrolidin-3-yl)-3-(4-methyl-3-(2-methylpyrimidin-5-yl)-1-phenyl-1H-pyrazol-5-yl)urea]
eEF-2K
  Avg POC: 112.5 POC
CDK6/cyclinD3
  Avg POC: 99.5 POC
PKD2
  Avg POC: 94.5 POC
CK1gamma1
  Avg POC: 78.5 POC
PhKgamma2
  Avg POC: 108 POC
p38alpha
  Avg POC: 107.5 POC
Yes
  Avg POC: 98.5 POC
EphA1
  Avg POC: 94.5 POC
Lck
  Avg POC: 94 POC
CAMK1
  Avg POC: 104.5 POC
SGK1
  Avg POC: 105 POC
CSK
  Avg POC: 100 POC
ErbB4
  Avg POC: 107.5 POC
p70S6K
  Avg POC: 104 POC
CK1delta
  Avg POC: 104 POC
ERK1
  Avg POC: 94.5 POC
STK33
  Avg POC: 101 POC
DAPK3
  Avg POC: 105.5 POC
ULK2
  Avg POC: 106 POC
IGF-1R Activated
  Avg POC: 105 POC
Rsk4
  Avg POC: 105.5 POC
EphA4
  Avg POC: 98 POC
Hck
  Avg POC: 108.5 POC
Pim-2
  Avg POC: 117.5 POC
p38gamma
  Avg POC: 114.5 POC
NEK2
  Avg POC: 95 POC
CDK5/p35
  Avg POC: 97 POC
EphB4
  Avg POC: 102 POC
AMPK(A1/B1/G1)
  Avg POC: 102.5 POC
CK2alpha2
  Avg POC: 106 POC
MYLK
  Avg POC: 106.5 POC
KDR
  Avg POC: 102.5 POC
DCAMKL2
  Avg POC: 135 POC
Rsk3
  Avg POC: 107.5 POC
PAK5
  Avg POC: 111 POC
Flt3
  Avg POC: 102 POC
TSSK1
  Avg POC: 104 POC
EphA2
  Avg POC: 92.5 POC
WNK3
  Avg POC: 115.5 POC
FGFR1
  Avg POC: 117 POC
MST2
  Avg POC: 102 POC
